# Experimental data: patent US10064913B2, “Immunotherapy against several tumors including gastrointestinal and gastric cancer” (IMMATICS BIOTECHNOLOGIES GMBH, priority 2010, dated 2018)
# Tested on: CD8+ T cells
# Assay: In vitro immunogenicity of HLA-A*2402 restricted TUMAPs (aAPC priming of CD8+ T cells, multimer staining)
# Type: cell-based, human
# Conditions: HLA-A*2402 peptides, CD8+ T cells of healthy HLA-A*24 donors, three stimulation cycles with pMHC/anti-CD28 beads; for Wells positive/evaluable [%]: at least 48 wells evaluable; for Donors positive/evaluable [%]: at least four donors evaluable
# Text: In order to perform in vitro stimulations by artificial antigen presenting cells (aAPC) loaded with peptide-MHC complex (pMHC) and anti-CD28 antibody, we first isolated CD8 T cells from fresh HLA-A*24 leukapheresis products or from HLA-A*2 buffy coats of healthy donors obtained from the Blood Bank Tuebingen.
# CD8 T cells were either directly enriched or PBMCs (peripheral blood mononuclear cells) were isolated first by using standard gradient separation medium (PAA, Colbe, Germany). Isolated CD8 lymphocytes or PBMCs were incubated until use in T-cell medium (TCM) consisting of RPMI-Glutamax (Invitrogen, Karlsruhe, Germany) supplemented with 10% heat inactivated human AB serum (PAN-Biotech, Aidenbach, Germany), 100 U/ml Penicillin/100 μg/ml Streptomycin (Cambrex, Cologne, Germany), 1 mM sodium pyruvate (CC Pro, Oberdorla, Germany), 20 μg/ml Gentamycin (Cambrex). […] Isolation of CD8+ lymphocytes was performed by positive selection using CD8 MicroBeads (Miltenyi Biotec, Bergisch-Gladbach, Germany).
# 800.000 beads/200 μl were coated in 96-well plates in the presence of 600 ng biotin-anti-CD28 plus 200 ng relevant biotin-pMHC (high density beads). […] Half of the medium was then exchanged by fresh TCM supplemented with 80 U/ml IL-2 and incubation was continued for 3-4 days at 37° C. This stimulation cycle was performed for a total of three times.
# In vitro priming of specific multimer+CD8+ lymphocytes was detected by appropriate gating and by comparing to negative control stimulations.
Sequence,Wells positive/evaluable [%],Donors positive/evaluable [%]
AYAIIKEEL (listed as Homo sapiens) [ATAD2-001],3%,33%
AYLVYTDRL (listed as Homo sapiens) [PPAP2C-001],29%,83%
AYPTVKFYF (listed as Homo sapiens) [DNAJC10-002],3%,33%
DYAYLREHF (listed as Homo sapiens) [ZNF598-001],17%,83%
DYTIGFGKF (listed as Homo sapiens) [ITGB4-001],20%,67%
FYISPVNKL (listed as Homo sapiens) [AVL9-001],31%,100%
FYQPKIQQF (listed as Homo sapiens) [FANCI-001],1%,17%
HYKPTPLYF (listed as Homo sapiens) [SMC4-001],10%,73%
IFSKIVSLF (listed as Homo sapiens) [EIF2S3-001],1%,17%
IYAPKLQEF (listed as Homo sapiens) [CCNE2-001],0%,0%
IYLEVIHNL (listed as Homo sapiens) [DNAJC10-001],15%,50%
IYNGKLFDLL (listed as Homo sapiens) [KIF2C-001],2%,17%
IYPDASLLI (listed as Homo sapiens) [CEA-010],3%,40%
KYLTVKDYL (listed as Homo sapiens) [ATAD2-002],1%,17%
KYNDTFWKEF (listed as Homo sapiens) [HSP90B1-001],7%,50%
LYLENIDEF (listed as Homo sapiens) [POLD3-001],7%,67%
LYPEVFEKF (listed as Homo sapiens) [ATAD2-003],0%,0%
LYQILQGIVF (listed as Homo sapiens) [CDC2-001],28%,83%
MYMTVSIIDRF (listed as Homo sapiens) [CCNB1-003],3%,33%
NYEETFPHI (listed as Homo sapiens) [MUC6-001],22%,83%
NYLLYVSNF (listed as Homo sapiens) [MST1R-001],13%,50%
NYLPFIMEL (listed as Homo sapiens) [UCHL5-001],12%,75%
QYASRFVQL (listed as Homo sapiens) [PLK4-001],5%,60%
QYIDKLNEL (listed as Homo sapiens) [CCDC88A-001],0%,0%
RFLSGIINF (listed as Homo sapiens) [NUF2-002],6%,50%
RYLEGTSCI (listed as Homo sapiens) [EPPK1-001],1%,17%
RYLPKGFLNQF (listed as Homo sapiens) [PTK2-001],4%,17%

Sequence,Wells positive/evaluable [%],Donors positive/evaluable [%]
RYLPQCSYF (listed as Homo sapiens) [CCND2-001],10%,17%
RYLWATVTI (listed as Homo sapiens) [ASPM-001],3%,17%
SYATLLHVL (listed as Homo sapiens) [GPR39-001],6%,50%
SYIDVLPEF (listed as Homo sapiens) [MET-006],21%,67%
SYIIDPLNL (listed as Homo sapiens) [PROM1-001],26%,83%
SYLELVKSL (listed as Homo sapiens) [SDHC-001],3%,33%
SYLQAANAL (listed as Homo sapiens) [COL6A3-001],0%,0%
SYNPLWLRI (listed as Homo sapiens) [ASPM-002],32%,67%
SYNVTSVLF (listed as Homo sapiens) [LCN2-001],1%,17%
SYQKVIELF (listed as Homo sapiens) [PBK-001],0%,0%
TYGNLLDYL (listed as Homo sapiens) [ABL1-001],18%,83%
VFDTAIAHLF (listed as Homo sapiens) [SIAH2-001],8%,50%
VFIFKGNQF (listed as Homo sapiens) [MMP3-001],1%,11%
VWSDVTPLTF (listed as Homo sapiens) [MMP11-001],11%,33%
VYFSKSEQL (listed as Homo sapiens) [EPHA2-005],0%,0%
VYGIRLEHF (listed as Homo sapiens) [NUF2-001],50%,100%
VYIEKNDKL (listed as Homo sapiens) [ERBB3-001],–,83%
VYISSLALL (listed as Homo sapiens) [PSMD14-001],1%,17%
VYKVVGNLL (listed as Homo sapiens) [IQGAP3-001],24%,100%
VYLLNSTTL (listed as Homo sapiens) [CLCN3-001],6%,33%
VYNPTPNSL (listed as Homo sapiens) [COL12A1-001],0%,0%
VYPNWAIGL (listed as Homo sapiens) [SLC6A6-001],1%,17%
VYTTMAEHF (listed as Homo sapiens) [TSPAN1-002],1%,17%
VYTTSYQQI (listed as Homo sapiens) [NFYB-001],7%,50%
YYKNIGLGF (listed as Homo sapiens) [RPS11-001],3%,17%
YYNAAGFNKL (listed as Homo sapiens) [UQCRB-001],24%,83%
